# PubChem BioAssay (NCI)
#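 Each compound was tested at five concentrations against cells in 96-well plates for 48 hours. Definition used: TGI = concentration required for complete inhibition of growth.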
# Legend:
# Assay in all cases: NCI tumour cell line growth inhibition, 48 h
# A549 NSCLC = test system: A549 NSCLC
# CCRF-CEM leukemia = test system: CCRF-CEM leukemia
# HL-60(TB) leukemia = test system: HL-60(TB) leukemia
# HS 578T breast = test system: HS 578T breast
# HT29 colon = test system: HT29 colon
# IGROV1 ovarian = test system: IGROV1 ovarian
# K-562 leukemia = test system: K-562 leukemia
# NCI-H460 lung = test system: NCI-H460 lung
# NCI-H522 lung = test system: NCI-H522 lung
# OVCAR-3 ovarian = test system: OVCAR-3 ovarian
# OVCAR-5 ovarian = test system: OVCAR-5 ovarian
# PC-3 prostate = test system: PC-3 prostate
# SK-MEL-28 melanoma = test system: SK-MEL-28 melanoma
# SW-620 colon = test system: SW-620 colon
# TK-10 renal = test system: TK-10 renal
# 786-0 renal = test system: 786-0 renal
# HOP-62 NSCLC = test system: HOP-62 NSCLC
# SK-OV-3 ovarian = test system: SK-OV-3 ovarian
# NCI-H226 lung = test system: NCI-H226 lung
SMILES,TGI (A549 NSCLC) [µM],TGI (CCRF-CEM leukemia) [µM],TGI (HL-60(TB) leukemia) [µM],TGI (HS 578T breast) [µM],TGI (HT29 colon) [µM],TGI (IGROV1 ovarian) [µM],TGI (K-562 leukemia) [µM],TGI (NCI-H460 lung) [µM],TGI (NCI-H522 lung) [µM],TGI (OVCAR-3 ovarian) [µM],TGI (OVCAR-5 ovarian) [µM],TGI (PC-3 prostate) [µM],TGI (SK-MEL-28 melanoma) [µM],TGI (SW-620 colon) [µM],TGI (TK-10 renal) [µM],TGI (786-0 renal) [µM],TGI (HOP-62 NSCLC) [µM],TGI (SK-OV-3 ovarian) [µM],TGI (NCI-H226 lung) [µM]
Cc1cc(N(CCOS(C)(=O)=O)CCOS(C)(=O)=O)ccc1C=O,45.7,> 100,> 100,94,> 100,39.2,> 100,6.35,0.379,70.9,33.8,> 100,31.3,> 100,> 100,–,–,–,–
COc1cccc2c(=O)oc(-c3ccc(C(C)(C)C)cc3)nc12,> 100,> 100,44,> 100,> 100,> 100,> 100,> 100,89.6,81.8,> 100,> 100,> 100,> 100,> 100,> 100,> 100,> 100,–
COP(=O)(/C=C/c1cc(C(=O)OCc2ccccc2)n(S(=O)(=O)c2ccccc2)c1)OC,> 100,> 100,> 100,> 100,> 100,> 100,> 100,> 100,> 100,> 100,> 100,> 100,> 100,> 100,> 100,> 100,> 100,> 100,–
N#Cc1c(-c2ccccc2)/c(=C\Nc2ccc(F)cc2)c(=O)n2c1nc1ccccc12,> 100,> 100,–,–,–,87.3,–,> 100,34.3,48.2,> 100,> 100,> 100,> 100,> 100,68.3,10.8,> 100,64.1
NS(=O)(=O)c1cc2c(cc1Cl)NC(CCC(=O)O)=NS2(=O)=O,> 100,–,–,> 100,> 100,> 100,> 100,> 100,> 100,> 100,> 100,> 100,> 100,> 100,> 100,> 100,> 100,> 100,> 100
NC1=NCC(CN2CCOCC2)O1 (stereo unspecified),> 100,> 100,> 100,> 100,> 100,> 100,> 100,> 100,> 100,> 100,> 100,> 100,> 100,> 100,> 100,> 100,> 100,> 100,–
Cc1nc(N)c(N2CCN([N+](=O)[O-])CC2)c(=O)[nH]1,> 100,> 100,> 100,> 100,> 100,–,> 100,> 100,> 100,> 100,> 100,> 100,> 100,> 100,> 100,> 100,> 100,–,> 100
O=C1c2ccccc2-c2c1c(-c1ccc(F)cc1)nc1ccc3ccccc3c21,> 100,> 100,–,> 100,> 100,–,> 100,> 100,–,> 100,> 100,> 100,> 100,> 100,–,> 100,> 100,> 100,> 100
CSC(=S)N(C)C,> 100,> 100,> 100,> 100,> 100,> 100,> 100,> 100,> 100,> 100,> 100,–,> 100,> 100,> 100,> 100,> 100,> 100,> 100
COc1ccc2c(c1)/C(=C\c1c(Cl)nc3sc(C)cn13)C(=O)N2,17,6.15,6.11,9.6,12.7,16.7,9.56,12.3,14.4,8.83,25.4,12.4,25.5,11.7,19.1,15.1,19.4,14.6,–
CC(=N/N=C/c1ccccn1)/C(C)=N/N=C(C)/C(C)=N/N=C(C)/C(C)=N/N=C(C)/C(C)=N\N=C\c1ccccn1,> 100,–,> 100,> 100,> 100,> 100,> 100,> 100,> 100,> 100,> 100,> 100,> 100,> 100,> 100,> 100,> 100,> 100,> 100
CS(=O)(=O)OCC(CCl)(CCl)CCl,> 100,> 100,–,> 100,> 100,–,> 100,> 100,> 100,> 100,–,> 100,> 100,> 100,> 100,–,–,> 100,> 100
O=c1[nH]c(Nc2nc3ccccc3[nH]2)nc(O)c1-c1ccccc1,> 100,> 100,–,> 100,> 100,> 100,> 100,> 100,> 100,> 100,> 100,> 100,> 100,> 100,> 100,> 100,> 100,> 100,> 100
CSC(=S)N/N=C(\C)c1ccc(S(=O)(=O)N(C)c2ccccc2)cc1,> 100,–,> 100,87,> 100,> 100,> 100,> 100,–,> 100,> 100,> 100,> 100,> 100,> 100,> 100,> 100,> 100,> 100
